# Measured values as given in publication PMC7034070, “Synthesis, anti-inflammatory, cytotoxic, and COX-1/2 inhibitory activities of cyclic imides bearing 3-benzenesulfonamide, oxime, and β-phenylalanine scaffolds: a molecular docking study” (Journal of Enzyme Inhibition and Medicinal Chemistry, 2020).
# Several values for one entry are separate records, joined by “and”; a condition that tells them apart may be missing. Identical values can stand only once.
# Experiments:
# [1] = tested on: carrageenan induced rat paw oedema; test: rat carrageenan-induced foot paw oedema model; format: in vivo; settings: for Mean % increase in paw weight ± SEM / % Inhibition of paw oedema from control group: 2 h after carrageenan; for Mean % increase in paw weight ± SEM: control group 165.6 ± 1.6; for % Inhibition of paw oedema from control group: single dose screen (Table 1)
# Method: Anti-inflammatory assessment of the newly synthesised compounds was carried out using an in vivo rat carrageenan-induced foot paw oedema model, as reported previously[16]^,[17].
# HL-60(TB) (Leukaemia) = test: NCI 59 cell line panel, single dose; format: cell-based; settings: one dose 10.0 μM
# mice = test: Ulcerogenicity measurement; format: in vivo
# Method: Ulcerogenicity was evaluated according to a previously reported method[6]^a,[17]^,[18]. The number and total length of the ulcers for each animal were measured and their averages were calculated and used as the ulcer indices.
# 59 cancer cell lines = test: full NCI 59 cell line panel assay, single dose; format: cell-based; settings: one dose 10.0 μM, 59 cell lines
# COX-2 = biological target: T1, COX-2 (Ovis aries, UniProt P79208); test: colorimetric COX (ovine) inhibitor screening assay kit; format: biochemical; settings: for SI, selectivity index (COX-1 IC50/COX-2 IC50): ovine COX-1/COX-2; for IC50: ovine COX-2, mean of two determinations
# T1 construct: purchased Cayman Chemicals Inc., Ann Arbour, MI
# T1 sequence (P79208 17-603): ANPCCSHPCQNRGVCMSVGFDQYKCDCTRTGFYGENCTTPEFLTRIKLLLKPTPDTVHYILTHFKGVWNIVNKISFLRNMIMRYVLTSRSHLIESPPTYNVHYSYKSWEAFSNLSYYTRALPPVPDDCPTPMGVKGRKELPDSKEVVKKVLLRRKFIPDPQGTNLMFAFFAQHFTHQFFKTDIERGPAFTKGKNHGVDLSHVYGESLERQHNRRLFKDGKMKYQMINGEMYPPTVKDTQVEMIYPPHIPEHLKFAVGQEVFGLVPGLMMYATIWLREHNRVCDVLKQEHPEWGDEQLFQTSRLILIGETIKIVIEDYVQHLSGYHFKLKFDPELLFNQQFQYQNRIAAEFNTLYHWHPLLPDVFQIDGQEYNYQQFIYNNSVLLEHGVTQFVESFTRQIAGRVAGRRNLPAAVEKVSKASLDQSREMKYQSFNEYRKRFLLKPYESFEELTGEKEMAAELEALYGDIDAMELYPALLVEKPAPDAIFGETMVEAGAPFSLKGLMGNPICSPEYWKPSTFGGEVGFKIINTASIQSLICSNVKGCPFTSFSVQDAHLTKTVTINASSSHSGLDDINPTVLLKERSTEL
# Source text: (§1) To determine the relative ability of the test compounds and reference drugs to inhibit COX-1/COX-2 isozymes, we used the colorimetric COX (ovine) inhibitor screening assay kit (Cayman Chemicals Inc., Ann Arbour, MI), according to the manufacturer’s instructions[3]^,[10]^,[11]^,[20].
# COX-1 = biological target: T2, COX-1 (Ovis aries, UniProt P05979); test: as above; format: biochemical; settings: ovine COX-1, mean of two determinations
# T2 construct: purchased Cayman Chemicals Inc., Ann Arbour, MI
# T2 sequence (P05979 25-600): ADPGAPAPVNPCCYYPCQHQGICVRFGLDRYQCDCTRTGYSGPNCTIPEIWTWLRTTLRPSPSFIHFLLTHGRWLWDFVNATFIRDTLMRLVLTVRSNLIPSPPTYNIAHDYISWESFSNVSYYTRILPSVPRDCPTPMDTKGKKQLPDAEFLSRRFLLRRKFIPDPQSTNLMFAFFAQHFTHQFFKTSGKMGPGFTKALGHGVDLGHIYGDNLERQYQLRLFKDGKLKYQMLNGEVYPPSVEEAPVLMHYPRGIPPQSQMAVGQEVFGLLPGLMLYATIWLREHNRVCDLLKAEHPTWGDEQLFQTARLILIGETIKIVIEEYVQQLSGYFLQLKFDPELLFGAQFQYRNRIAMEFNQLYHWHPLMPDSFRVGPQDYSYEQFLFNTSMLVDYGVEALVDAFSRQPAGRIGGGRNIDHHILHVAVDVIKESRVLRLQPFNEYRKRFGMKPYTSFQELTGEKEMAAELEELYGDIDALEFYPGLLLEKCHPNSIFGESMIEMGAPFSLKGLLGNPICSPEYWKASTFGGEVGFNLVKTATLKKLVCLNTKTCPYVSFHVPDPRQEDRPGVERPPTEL
# Source text: as §1
# TK-10 (Renal Cancer) = test: NCI 59 cell line panel, single dose; format: cell-based; settings: TK-10, one dose 10.0 μM
# [2] = tested on: NCI-H522 (NSC Lung Cancer); test: NCI 59 cell line panel, single dose; format: cell-based; settings: NCI-H522, one dose 10.0 μM
# [3] = tested on: MDA-MB-468 (Breast Cancer); test: NCI 59 cell line panel, single dose; settings: MDA-MB-468, one dose 10.0 μM
# [4] = tested on: NCI-H226 (NSC Lung Cancer); test: NCI 59 cell line panel, single dose; settings: NCI-H226, one dose 10.0 μM
# HCT-116 (Colon Cancer) = test: NCI 59 cell line panel, single dose; settings: HCT-116, one dose 10.0 μM
# Source text: (§2) These cell lines were obtained from nine different organs including leukaemia, non-small cell lung, colon, CNS, melanoma, ovarian, renal, prostate, and breast[19].
# [5] = tested on: NCI-H23 (NSC Lung Cancer); test: NCI 59 cell line panel, single dose; settings: NCI-H23, one dose 10.0 μM
# Source text: as §2
# SF-539 (CNS Cancer) = test: NCI 59 cell line panel, single dose; settings: SF-539, one dose 10.0 μM
# Source text: as §2
# T-47D (Breast Cancer) = test: NCI 59 cell line panel, single dose; settings: one dose 10.0 μM
# PC-3 (Prostate Cancer) = test: NCI 59 cell line panel, single dose; format: cell-based; settings: PC-3, one dose 10.0 μM
# [6] = tested on: MDA-MB-231/ATCC (Breast Cancer); test: NCI 59 cell line panel, single dose; settings: one dose 10.0 μM
# PRMI-8226 (Leukaemia) = test: NCI 59 cell line panel, single dose; settings: PRMI-8226, one dose 10.0 μM
# HCT-15 (Colon Cancer) = test: NCI 59 cell line panel, single dose; settings: HCT-15, one dose 10.0 μM
# Source text: as §2
# SR (Leukaemia) = test: NCI 59 cell line panel, single dose; settings: one dose 10.0 μM
# A498 (Renal Cancer) = test: NCI 59 cell line panel, single dose; settings: A498, one dose 10.0 μM
# Source text: as §2
# SF-295 (CNS Cancer) = test: NCI 59 cell line panel, single dose; settings: SF-295, one dose 10.0 μM
# Source text: as §2
# MOLT-4 (Leukaemia) = test: NCI 59 cell line panel, single dose; settings: MOLT-4, one dose 10.0 μM
# U251 (CNS Cancer) = test: NCI 59 cell line panel, single dose; settings: U251, one dose 10.0 μM
# Source text: as §2
# HT29 (Colon Cancer) = test: NCI 59 cell line panel, single dose; settings: HT29, one dose 10.0 μM
# Source text: as §2
# LOX IMVI (Melanoma) = test: NCI 59 cell line panel, single dose; settings: one dose 10.0 μM
# Source text: as §2
# EKVX (NSC Lung Cancer) = test: NCI 59 cell line panel, single dose; settings: one dose 10.0 μM
# DU-145 (Prostate Cancer) = test: NCI 59 cell line panel, single dose; settings: DU-145, one dose 10.0 μM
# Source text: as §2
# UO-31 (Renal Cancer) = test: NCI 59 cell line panel, single dose; format: cell-based; settings: UO-31, one dose 10.0 μM
# CAKI-1 (Renal Cancer) = test: NCI 59 cell line panel, single dose; format: cell-based; settings: CAKI-1, one dose 10.0 μM
# [7] = tested on: NCI-H322M (NSC Lung Cancer); test: NCI 59 cell line panel, single dose; format: cell-based; settings: one dose 10.0 μM
# HOP-92 (NSC Lung Cancer) = test: NCI 59 cell line panel, single dose; format: cell-based; settings: HOP-92, one dose 10.0 μM
smiles,measurement,setting,value
NS(=O)(=O)c1cccc(N2C(=O)c3ccccc3C2=O)c1 [Compound 4],Mean % increase in paw weight ± SEM,[1],41.0 ± 0.2%
same,% Inhibition of paw oedema from control group,[1],77.8% and 77.8 ± 0.6%
same,Percentage inhibition of paw oedema from control group,[1]; dose 45 mg/kg,65.0%
same,Percentage inhibition of paw oedema from control group,[1]; dose 65 mg/kg,77.8%
same,Percentage inhibition of paw oedema from control group,[1]; dose 80 mg/kg,86.2%
same,ED50,"[1]; from three graded doses (45, 65, 80 mg/kg)",45.3 mg/kg
same,GI%,HL-60(TB) (Leukaemia),18%
same,Average number of ulcers,mice; mice,6
same,Mean sum of lengths of elongated ulcer,"mice; mice, ± SEM",4.7 ± 0.54 mm
same,level of ulcerogenic activity (in words),mice; relative to diclofenac and celecoxib,ulcerogenic level similar to celecoxib and less than that of diclofenac
same,PCE (positive cytotoxic effect: cell lines with growth inhibition >10% / total number of cell lines),59 cancer cell lines,3/59
same,"SI, selectivity index (COX-1 IC50/COX-2 IC50)",COX-2,>277.8
same,IC50,COX-2,180 nM
same,IC50,COX-1,> 50000 nM
same,GI%,TK-10 (Renal Cancer),11%
same,GI%,[2],16.0%
Cc1ccc(NC(=O)c2ccc(CN3CCN(C)CC3)cc2)cc1Nc1nccc(-c2cccnc2)n1 [Imatinib],GI%,[3],29.1%
same,GI%,[4],10.6%
same,GI%,HCT-116 (Colon Cancer),18.6%
same,GI%,[5],17.1%
same,GI%,SF-539 (CNS Cancer),24.5%
same,GI%,T-47D (Breast Cancer),18.6%
same,GI%,PC-3 (Prostate Cancer),10.6%
same,GI%,[6],11.2%
same,GI%,PRMI-8226 (Leukaemia),12.6%
same,GI%,HCT-15 (Colon Cancer),11.5%
same,PCE (positive cytotoxic effect: cell lines with growth inhibition >10% / total number of cell lines),59 cancer cell lines,20/59
same,GI%,SR (Leukaemia),14.6%
same,GI%,A498 (Renal Cancer),13.7%
same,GI%,SF-295 (CNS Cancer),15.1%
same,GI%,MOLT-4 (Leukaemia),18.0%
same,GI%,U251 (CNS Cancer),10.6%
same,GI%,HT29 (Colon Cancer),47.1%
same,GI%,LOX IMVI (Melanoma),11.6%
same,GI%,EKVX (NSC Lung Cancer),15.7%
same,GI%,DU-145 (Prostate Cancer),14.4%
"NS(=O)(=O)c1cccc(N2C(=O)CCC2=O)c1 [Compound 2, 3-(2,5-Dioxopyrrolidin-1-yl)benzenesulfonamide]",Mean % increase in paw weight ± SEM,[1],53.2 ± 0.4%
same,% Inhibition of paw oedema from control group,[1],71.2% and 71.2 ± 0.5%
same,GI%,UO-31 (Renal Cancer),13%
same,PCE (positive cytotoxic effect: cell lines with growth inhibition >10% / total number of cell lines),59 cancer cell lines,3/59
same,melting point,,195 to 197 °C
same,"SI, selectivity index (COX-1 IC50/COX-2 IC50)",COX-2,>192.3
same,IC50,COX-2,260 nM
same,IC50,COX-1,> 50000 nM
same,GI%,CAKI-1 (Renal Cancer),12%
same,GI%,[2],12%
"Cc1ccc2c(c1)C(=O)N(c1cccc(S(N)(=O)=O)c1)C2=O [Compound 5, 3-(5-Methyl-1,3-dioxoisoindolin-2-yl)benzenesulfonamide]",GI%,[7],11%
same,Mean % increase in paw weight ± SEM,[1],78.1 ± 0.7%
same,% Inhibition of paw oedema from control group,[1],57.7% and 57.7 ± 0.5%
same,GI%,PC-3 (Prostate Cancer),11%
same,GI%,UO-31 (Renal Cancer),17%
same,GI%,HOP-92 (NSC Lung Cancer),11%
same,PCE (positive cytotoxic effect: cell lines with growth inhibition >10% / total number of cell lines),59 cancer cell lines,5/59
same,melting point,,225 to 226 °C
same,"SI, selectivity index (COX-1 IC50/COX-2 IC50)",COX-2,>55.6
same,IC50,COX-2,900 nM
same,IC50,COX-1,> 50000 nM
same,GI%,[2],11%
